Tests used:
Type in all cases: biochemical
JAK2 = JAK2 (Homo sapiens, UniProt O60674); test: JAK2 inhibition assay (radioactive enzyme assay, as for JAK3); conditions: average Ki if more than one value determined
Procedure, shortened: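 Both kinases: poly(Glu)4Tyr substrate in 100 mM HEPES pH 7.4, 10 mM MgCl2, 1 mM DTT. Run 20 min at 25° C, TCA stop, filter-bound ³³P counted, Ki(app) fitted after background subtraction. JAK3: final [γ-³³P]ATP 5 μM, enzyme added as 2 nM solution. JAK2: final poly(Glu)4Tyr 15 μM, final ATP 12 μM.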

JAK3 = target: T1, JAK3 (Homo sapiens, UniProt P52333); test: JAK3 inhibition assay (standard radioactive enzyme assay); conditions: average Ki if more than one value determined
T1 sequence (P52333 1-1124): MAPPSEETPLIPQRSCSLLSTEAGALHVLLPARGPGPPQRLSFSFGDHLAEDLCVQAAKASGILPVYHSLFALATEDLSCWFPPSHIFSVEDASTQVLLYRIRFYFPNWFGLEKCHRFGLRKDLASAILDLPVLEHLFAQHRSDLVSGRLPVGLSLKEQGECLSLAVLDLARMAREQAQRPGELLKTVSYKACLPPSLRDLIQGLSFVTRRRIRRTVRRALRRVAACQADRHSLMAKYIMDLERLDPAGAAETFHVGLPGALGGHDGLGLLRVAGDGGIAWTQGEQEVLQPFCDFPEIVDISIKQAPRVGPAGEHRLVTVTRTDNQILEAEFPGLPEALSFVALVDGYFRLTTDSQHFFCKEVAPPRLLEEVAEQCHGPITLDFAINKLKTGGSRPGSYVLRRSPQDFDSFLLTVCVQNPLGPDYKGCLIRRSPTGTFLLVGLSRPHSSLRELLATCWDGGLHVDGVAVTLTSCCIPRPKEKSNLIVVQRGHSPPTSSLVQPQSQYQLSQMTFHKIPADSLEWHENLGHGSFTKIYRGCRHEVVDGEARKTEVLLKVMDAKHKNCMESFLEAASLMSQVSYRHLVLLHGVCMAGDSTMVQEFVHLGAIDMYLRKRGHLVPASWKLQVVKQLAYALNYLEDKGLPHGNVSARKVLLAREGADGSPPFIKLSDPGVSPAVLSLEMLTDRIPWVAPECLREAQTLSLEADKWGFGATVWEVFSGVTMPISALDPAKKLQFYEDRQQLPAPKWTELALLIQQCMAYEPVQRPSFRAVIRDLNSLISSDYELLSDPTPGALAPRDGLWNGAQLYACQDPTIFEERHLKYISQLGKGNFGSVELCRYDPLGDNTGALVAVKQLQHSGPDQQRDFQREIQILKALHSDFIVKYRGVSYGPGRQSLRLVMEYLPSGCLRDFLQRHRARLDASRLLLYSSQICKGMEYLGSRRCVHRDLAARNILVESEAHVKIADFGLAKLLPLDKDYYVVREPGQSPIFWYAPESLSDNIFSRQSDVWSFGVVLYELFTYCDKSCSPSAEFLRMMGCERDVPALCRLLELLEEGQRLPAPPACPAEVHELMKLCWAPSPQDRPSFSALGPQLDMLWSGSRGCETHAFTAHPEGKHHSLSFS

[1] = target: T2, full length Aurora-A (AA 1-403) (Homo sapiens, UniProt O14965); test: Aurora-A inhibition assay, standard coupled enzyme system; conditions: average Ki if more than one value determined
T2 construct: full length Aurora-A (AA 1-403)
T2 sequence (O14965 1-403): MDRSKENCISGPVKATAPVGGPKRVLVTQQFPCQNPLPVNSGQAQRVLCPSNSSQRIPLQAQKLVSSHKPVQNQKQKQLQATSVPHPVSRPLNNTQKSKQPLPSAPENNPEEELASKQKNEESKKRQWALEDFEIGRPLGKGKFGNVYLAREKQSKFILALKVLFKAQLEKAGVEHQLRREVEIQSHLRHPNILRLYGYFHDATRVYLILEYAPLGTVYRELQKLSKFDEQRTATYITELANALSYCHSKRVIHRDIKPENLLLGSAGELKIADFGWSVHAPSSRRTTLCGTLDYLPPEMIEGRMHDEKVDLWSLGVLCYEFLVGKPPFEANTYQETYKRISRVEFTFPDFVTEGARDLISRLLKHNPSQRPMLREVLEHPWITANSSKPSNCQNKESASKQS

ROCK I (AA 6-553) = target: T3, ROCK I (AA 6-553) (Homo sapiens, UniProt Q13464); test: ROCK inhibition assay, standard coupled enzyme system ("Enzyme"); conditions: enzyme-linked assay
T3 construct: ROCK I (AA 6-553)
T3 sequence (Q13464 6-553, species assumed): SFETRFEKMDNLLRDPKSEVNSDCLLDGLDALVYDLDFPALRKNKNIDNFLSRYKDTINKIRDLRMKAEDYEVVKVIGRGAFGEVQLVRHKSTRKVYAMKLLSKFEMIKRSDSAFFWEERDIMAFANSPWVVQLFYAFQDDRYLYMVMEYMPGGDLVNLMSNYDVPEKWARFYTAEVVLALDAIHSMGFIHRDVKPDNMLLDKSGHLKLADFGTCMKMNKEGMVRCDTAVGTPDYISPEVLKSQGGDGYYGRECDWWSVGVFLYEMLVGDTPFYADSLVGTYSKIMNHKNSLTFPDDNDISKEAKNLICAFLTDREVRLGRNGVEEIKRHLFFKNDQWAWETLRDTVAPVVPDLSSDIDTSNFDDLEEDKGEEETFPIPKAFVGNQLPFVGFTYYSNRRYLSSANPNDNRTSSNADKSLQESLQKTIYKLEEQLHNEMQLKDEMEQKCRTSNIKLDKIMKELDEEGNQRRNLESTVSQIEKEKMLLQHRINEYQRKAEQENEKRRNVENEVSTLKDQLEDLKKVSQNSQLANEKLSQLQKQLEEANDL
Procedure, shortened: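 ROCK I (AA 6-553) at 45 nM and 30 °C with 45 μM ATP and 200 μM peptide, in 100 mM HEPES pH 7.5, 10 mM MgCl2, 25 mM NaCl, 2 mM DTT, 1.5% DMSO. ADP output read by a PK/LDH coupled system: 2.5 mM PEP, 350 μM NADH, 30 μg/ml PK, 10 μg/ml LDH.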

Chain of JAK2 (O60674 whole entry, species assumed): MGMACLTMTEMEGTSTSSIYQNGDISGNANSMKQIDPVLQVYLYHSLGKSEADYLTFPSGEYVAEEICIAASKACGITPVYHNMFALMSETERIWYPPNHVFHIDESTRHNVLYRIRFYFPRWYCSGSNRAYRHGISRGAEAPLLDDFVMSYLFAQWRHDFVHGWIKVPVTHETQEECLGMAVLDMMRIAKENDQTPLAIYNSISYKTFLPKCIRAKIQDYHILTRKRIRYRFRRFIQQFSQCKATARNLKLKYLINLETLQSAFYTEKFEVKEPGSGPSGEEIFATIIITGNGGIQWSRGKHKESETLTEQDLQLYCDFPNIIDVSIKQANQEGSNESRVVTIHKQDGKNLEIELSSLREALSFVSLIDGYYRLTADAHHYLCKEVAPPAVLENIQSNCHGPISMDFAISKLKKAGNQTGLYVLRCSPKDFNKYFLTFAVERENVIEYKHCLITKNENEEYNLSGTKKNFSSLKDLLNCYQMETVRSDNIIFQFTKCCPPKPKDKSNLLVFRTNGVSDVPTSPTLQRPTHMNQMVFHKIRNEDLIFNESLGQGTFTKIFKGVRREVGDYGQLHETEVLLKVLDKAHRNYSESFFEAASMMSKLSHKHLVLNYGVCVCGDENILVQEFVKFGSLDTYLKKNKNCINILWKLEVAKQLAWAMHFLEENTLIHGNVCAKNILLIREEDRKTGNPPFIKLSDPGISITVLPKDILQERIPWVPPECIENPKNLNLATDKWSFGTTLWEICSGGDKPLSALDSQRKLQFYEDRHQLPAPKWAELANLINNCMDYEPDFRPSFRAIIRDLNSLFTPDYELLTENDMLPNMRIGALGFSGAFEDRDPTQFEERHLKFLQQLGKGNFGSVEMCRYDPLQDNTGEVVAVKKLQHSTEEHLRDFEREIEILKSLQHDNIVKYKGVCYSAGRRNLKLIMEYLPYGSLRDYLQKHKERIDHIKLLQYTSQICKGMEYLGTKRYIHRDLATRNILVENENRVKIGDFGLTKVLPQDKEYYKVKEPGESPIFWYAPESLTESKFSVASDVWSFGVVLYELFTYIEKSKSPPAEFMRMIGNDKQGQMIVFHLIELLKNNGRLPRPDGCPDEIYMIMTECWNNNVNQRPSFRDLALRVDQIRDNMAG

Row | SMILES | Ki (JAK2) [nM] | Ki (JAK3) [nM] | Ki [1] [nM] | Ki (ROCK I (AA 6-553)) [nM]
1 | CC(C)CNc1cc(C#N)cc(-c2c[nH]c3ncc(Cl)cc23)n1 [Compound 150] | < 500 | < 500 | 500 to 5000 | 500 to 5000
2 | N#Cc1cc(-c2c[nH]c3ncc(Cl)cc23)nc(N2CCCNCC2)c1 [Compound 151] | < 500 | < 500 | < 500 | < 500
3 | CC(=O)N1[C@H](C)CN(c2cccc(-c3c[nH]c4ncc(NC(=O)CCCN5CCNCC5)cc34)n2)C[C@@H]1C [Compound 152] | < 500 | < 500 | 500 to 5000 | 500 to 5000
4 | CC(=O)N1[C@H](C)CN(c2cccc(-c3c[nH]c4ncc(NC(=O)C5=CCCCC5)cc34)n2)C[C@@H]1C [Compound 155] | < 500 | < 500 | 500 to 5000 | 500 to 5000
5 | CC(=O)N1[C@H](C)CN(c2cccc(-c3c[nH]c4ncc(NC(=O)C5=CCCC5)cc34)n2)C[C@@H]1C [Compound 157] | < 500 | < 500 | 500 to 5000 | 500 to 5000
6 | CNc1cnc2[nH]cc(-c3cccc(N4C[C@@H](C)N(C(C)=O)[C@@H](C)C4)n3)c2c1 [Compound 159] | < 500 | < 500 | 500 to 5000 | 500 to 5000
7 | C/C=C(\C)C(=O)Nc1cnc2[nH]cc(-c3cccc(N4C[C@@H](C)N(C(C)=O)[C@@H](C)C4)n3)c2c1 [Compound 161] | < 500 | < 500 | 500 to 5000 | 500 to 5000
8 | CC(=O)N1[C@H](C)CN(c2cccc(-c3c[nH]c4ncc(NC(=O)c5cccnc5)cc34)n2)C[C@@H]1C [Compound 163] | < 500 | < 500 | 500 to 5000 | 500 to 5000
9 | CC(=O)N1[C@H](C)CN(c2cccc(-c3c[nH]c4ncc(NC(=O)c5cnccn5)cc34)n2)C[C@@H]1C [Compound 164] | < 500 | < 500 | 500 to 5000 | 500 to 5000
10 | CC(=O)N1[C@H](C)CN(c2cccc(-c3c[nH]c4ncc(NC(=O)C5CC5)cc34)n2)C[C@@H]1C [Compound 165] | < 500 | < 500 | 500 to 5000 | 500 to 5000
11 | CC(=O)N1[C@H](C)CN(c2cccc(-c3c[nH]c4ncc(NC(=O)C5CCCC5)cc34)n2)C[C@@H]1C [Compound 166] | < 500 | < 500 | 500 to 5000 | 500 to 5000
12 | CC(=O)N1[C@H](C)CN(c2cccc(-c3c[nH]c4ncc(NC(=O)c5ccno5)cc34)n2)C[C@@H]1C [Compound 167] | < 500 | < 500 | 500 to 5000 | 500 to 5000
13 | CC(=O)N1[C@H](C)CN(c2cccc(-c3c[nH]c4ncc(NC(=O)c5cccc(C)c5)cc34)n2)C[C@@H]1C [Compound 168] | < 500 | < 500 | 500 to 5000 | 500 to 5000
14 | CC(=O)N1[C@H](C)CN(c2cccc(-c3c[nH]c4ncc(NC(=O)c5cccc(F)c5)cc34)n2)C[C@@H]1C [Compound 169] | < 500 | < 500 | 500 to 5000 | 500 to 5000
15 | COCC(=O)Nc1cnc2[nH]cc(-c3cccc(N4C[C@@H](C)N(C(C)=O)[C@@H](C)C4)n3)c2c1 [Compound 170] | < 500 | < 500 | 500 to 5000 | 500 to 5000
16 | O=C(O)c1cc(Br)cc(-c2c[nH]c3ncc(Cl)cc23)c1 [Compound 177] | < 500 | < 500 | < 500 | 500 to 5000
17 | CC(=O)N1[C@H](C)CN(c2cccc(-c3c[nH]c4ncc(NC(=O)c5cccs5)cc34)n2)C[C@@H]1C [Compound 182] | < 500 | < 500 | 500 to 5000 | 500 to 5000
18 | CC(=O)N1[C@H](C)CN(c2cccc(-c3c[nH]c4ncc(NC(=O)c5nc[nH]n5)cc34)n2)C[C@@H]1C [Compound 190] | < 500 | < 500 | 500 to 5000 | 500 to 5000
19 | C=C/C=C/C(=O)Nc1cnc2[nH]cc(-c3cccc(N4C[C@@H](C)N(C(C)=O)[C@@H](C)C4)n3)c2c1 [Compound 191] | < 500 | < 500 | 500 to 5000 | < 500

More lines, now with the values ahead:

Row | Ki (JAK2) [nM] | Ki (JAK3) [nM] | Ki [1] [nM] | Ki (ROCK I (AA 6-553)) [nM] | SMILES
20 | < 500 | < 500 | < 500 | 500 to 5000 | O[C@H]1CCCC[C@@H]1Nc1cccc(-c2c[nH]c3ncc(Cl)cc23)n1 [Compound 132]
21 | < 500 | < 500 | 500 to 5000 | 500 to 5000 | CC(=O)N1[C@H](C)CN(c2cccc(-c3c[nH]c4ncc(NC(=O)CCCN5CCOCC5)cc34)n2)C[C@@H]1C [Compound 153]
22 | < 500 | < 500 | 500 to 5000 | 500 to 5000 | C=C(C)C(=O)Nc1cnc2[nH]cc(-c3cccc(N4C[C@@H](C)N(C(C)=O)[C@@H](C)C4)n3)c2c1 [Compound 154]
23 | < 500 | < 500 | 500 to 5000 | < 500 | CC(=O)N1[C@H](C)CN(c2cccc(-c3c[nH]c4ncc(NC(=O)c5ccccc5)cc34)n2)C[C@@H]1C [Compound 156]
24 | < 500 | < 500 | 500 to 5000 | 500 to 5000 | CC(=O)N1[C@H](C)CN(c2cccc(-c3c[nH]c4ncc(NC(=O)C5CCCCC5)cc34)n2)C[C@@H]1C [Compound 158]
25 | < 500 | < 500 | 500 to 5000 | 500 to 5000 | CC(=O)N1[C@H](C)CN(c2cccc(-c3c[nH]c4ncc(NC(=O)c5cscn5)cc34)n2)C[C@@H]1C [Compound 162]
26 | < 500 | < 500 | 500 to 5000 | < 500 | CC(=O)N1[C@H](C)CN(c2cccc(-c3c[nH]c4ncc(NC(=O)c5ccccc5F)cc34)n2)C[C@@H]1C [Compound 172]
27 | < 500 | < 500 | 500 to 5000 | 500 to 5000 | CC(=O)N1[C@H](C)CN(c2cccc(-c3c[nH]c4ncc(NC(=O)c5cccc(C#N)c5)cc34)n2)C[C@@H]1C [Compound 179]
28 | < 500 | < 500 | 500 to 5000 | 500 to 5000 | C/C=C/C(=O)Nc1cnc2[nH]cc(-c3cccc(N4C[C@@H](C)N(C(C)=O)[C@@H](C)C4)n3)c2c1 [Compound 181]
29 | < 500 | < 500 | 500 to 5000 | < 500 | CC(=O)N1[C@H](C)CN(c2cccc(-c3c[nH]c4ncc(NC(=O)/C=C/Cl)cc34)n2)C[C@@H]1C [Compound 192]
